According to the supplement of paper PMC11061612:

Columns and labels:
[1] = tested on: MHH-ES-1 (Ewing's Sarcoma); assay: combination Emax (second highest fraction inhibited in the dose matrix, 72 h); higher = more inhibition; extreme values may be limits of the assay
Procedure, shortened: (§1)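 After 24 hours at 37°C and 5% CO2 in 1536-well plates, cells in DMEM/F12 or RPMI plus 10% FBS received two-drug dose matrices for 72 hours. Viability came from CellTiter-Glo 2.0 luminescence and was scaled as inhibition, anchored at 0 by vehicle wells and at 1 by blank wells. Combination Emax is taken as the second-highest inhibition in the matrix, and Bliss excess as the observed combination effect less EA + EB − EA·EB, with EA and EB the single-agent effects.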

[2] = tested on: SW620 (Colorectal Carcinoma); assay: as above
Procedure, shortened: as §1

SMILES | combination Emax [1] | combination Emax [2]
COc1nnc2ccc(N3CCC(c4ccc(OCCN5CCN(C)C(=O)[C@H]5C)cc4)CC3)nn12 [AZD5153] + CN(CC[C@H](CSC1=CC=CC=C1)NC2=C(C=C(C=C2)S(=O)(=O)NC(=O)C3=CC=C(C=C3)N4CCC(CC4)[C@H](C5=CC=CC=C5C6=CC=C(C=C6)Cl)O)S(=O)(=O)C(F)(F)F)CCO [AZD4320] (first compound max 1 µM, 7x7, partner max 1 µM) | 0.74 | 0.84
CC(=O)c1c(C)c2cnc(Nc3ccc(N4CCNCC4)cn3)nc2n(C2CCCC2)c1=O [Palbociclib] + CN(CC[C@H](CSC1=CC=CC=C1)NC2=C(C=C(C=C2)S(=O)(=O)NC(=O)C3=CC=C(C=C3)N4CCC(CC4)[C@H](C5=CC=CC=C5C6=CC=C(C=C6)Cl)O)S(=O)(=O)C(F)(F)F)CCO [AZD4320] (first compound max 10 µM, 7x7, partner max 1 µM) | 0.835 | 0.693
C[C@@H](c1ccc2nccn2c1)n1nnc2ncc(-c3cnn(C)c3)nc21 [Savolitinib] + CN(CC[C@H](CSC1=CC=CC=C1)NC2=C(C=C(C=C2)S(=O)(=O)NC(=O)C3=CC=C(C=C3)N4CCC(CC4)[C@H](C5=CC=CC=C5C6=CC=C(C=C6)Cl)O)S(=O)(=O)C(F)(F)F)CCO [AZD4320] (first compound max 1 µM, 7x7, partner max 1 µM) | 0.404 | 0.207
